Measured values published in patent EP0433759A1, “4-Substituted alkyl carbapenem antibiotics” (Bristol-Myers Squibb Company, priority 1989, dated 1991).
In brackets after ≈: the same amount, converted by molar mass. Structures can show the parent of a compound that is named as a salt.

Legend:
[1] = Solubility in water, observation on the lyophilized product; format: physicochemical; conditions: lyophilized material
Procedure: A solution of (4R,5S,6S)-4-(4"-aminobutyl)-6-[(1'R)-1'-hydroxyethyl]-3-[(pyridin-4-yl)methylthio]-7-oxo-1-azabicyclo[3.2.0]hept-2-ene-2-carboxylic acid (0.134 g, 0.34 mmol) in 15 mL of cold water (pH 6.4), was adjusted to pH 8.0 with 1 M NaOH. Then 0.170 g (1.36 mmol) of aminoiminomethanesulfonic acid [K. Kim et al., Tet. Lett., 29, 3183 (1988)] was added in small portions over 5 min while maintaining the pH at 8 with 1 M NaOH. Three more portions of aminoiminomethanesulfonic acid (3 x 0.050 g) were added at 30 min intervals and the resulting mixture (some insoluble material) was stirred for a total of 3 h at 0-5 C. The pH was maintained throughout at 8 with 1 M NaOH. Then 15 mL of 0.2M pH 6.0 phosphate buffer was added and the resulting homogeneous solution was chromatographed on reverse phase silica gel (µBondapak C18, 2.5 x 14 cm). Elution with a gradient of acetonitrile (0-10%) in water gave 0.103 g (69%) of the title compound as a white amorphous powder after freeze drying.

[2] = test system: Streptococcus pneumoniae, A9585; assay: In vitro antibacterial activity (MIC), serial 2-fold dilution; format: cell-based; conditions: Streptococcus pneumoniae A9585; Mueller-Hinton; 37°C, 17 h; read-out: Antibacterial Activity MIC S. pn.
Procedure: (§1) In vitro antibacterial activity was determined by serial 2-fold dilution of the compound in Mueller-Hinton agar and inoculation of the agar surface or broth with an appropriately diluted 18-24 h broth culture.

[3] = test system: Pseudomonas aeruginosa, A9843; assay: as above; format: cell-based; conditions: Pseudomonas aeruginosa A9843; Mueller-Hinton; 37°C, 17 h; read-out: Antibacterial Activity MIC P. aer.
Procedure: as §1

Escherichia coli, A15119 = assay: as above; format: cell-based; conditions: Escherichia coli A15119; Mueller-Hinton; 37°C, 17 h; read-out: Antibacterial Activity MIC E. coli
Procedure: as §1

[4] = Chemical stability in aqueous solution (half-life); format: physicochemical; conditions: 37°C, 10^-4 M, pH 7.4, aqueous solution; read-out: Half-life (T 1/2) (converted)
Procedure: These values were determined by the method of Woodward et al, J. Am. Chem. Soc., 102, 2042 (1980)

| Compound | Solubility in water [1] | MIC [2] [mg/L] | MIC [3] [mg/L] | MIC (Escherichia coli, A15119) [mg/L] | half-life at 100 µM [4] [h] |
| --- | --- | --- | --- | --- | --- |
| C[C@@H](O)[C@H]1C(=O)N2C(C(=O)O)=C(SCc3ccncc3)[C@H](CCCCNC(=N)N)[C@H]12 [Example 78, (4R,5S,6S)-4-(4"-Guanidinobutyl]-6-[(1'R)-1'-hydroxyethyl]-3-[(pyridin-4-yl)methylthio]-7-oxo-1-azabicyclo-[3.2.0]hept-2-ene-2-carboxylic acid] | only slightly soluble in water | – | – | – | – |
| C[C@@H](O)[C@H]1C(=O)N2C(C(=O)O)=C(SCCOC(N)=O)[C@H](CCCCNC(=N)N)[C@H]12 [Example 100, (4R.5S,6S)-3-[(2-Carbamoyloxyethyl)thio)-4-(4"-guanidinobutyl)-6-[(1'R)-1'-hydroxyethyl]-7-oxo-1-azabicyclo-[3.2.0]-hept-2-ene-2-carboxylic acid] | – | 0.25 (≈ 0.582 µM) | 2 (≈ 4.66 µM) | 0.008 (≈ 0.0186 µM) | 180 |
| C[C@@H](O)[C@H]1C(=O)N2C(C(=O)O)=C(SCCN)[C@H](CCCN)[C@H]12 [Example 117, (4R,5S,6S)-4-(3"-Aminopropyl)-3-[(2-aminoethyl)thio]-6-[(1'R)-1'-hydroxyethyl]-7-oxo-1-azabicyclo[3.2.0]hept-2-ene-2-carboxylic acid, acetic acid_salt] | – | 0.13 | 0.25 | 0.13 | 33 |
| C[C@@H](O)[C@H]1C(=O)N2C(C(=O)O)=C(SCCN3CCCC3)[C@H](CCCN)[C@H]12 [Example 120, (4R,5S,6S)-4-(3"-Aminopropyl)-6-[(1'R)-1'-hydroxyethyl]-3-[2-(1-pyrrolidinyl)ethylthio]-7-oxo-1-azabicyclo-[3.2.0]-hept-2-ene-2-carboxylic acid, acetic acid salt] | – | 0.03 | 0.25 | 0.13 | 23 |
| C[C@@H](O)[C@H]1C(=O)N2C(C(=O)O)=C(SCCC#N)[C@H](CCCCCN)[C@H]12 [Example 121] | – | 0.13 (≈ 0.354 µM) | 1 (≈ 2.72 µM) | 0.004 (≈ 0.0109 µM) | 136 |
| C[C@@H](O)[C@H]1C(=O)N2C(C(=O)O)=C(SCCC#N)[C@H](CCN(C)CCC#N)[C@H]12 [Example 124, (4R,5S,6S)-3-[(2-Cyanoethyl)thio]-4-[2"-[N,N-(2-cyanoethyl)methylamino]ethy!]-6-[(1'R)-1'-hydroxyethyl]-7-oxo-1-azabicyclo[3.2.0]hept-2-ene-2-carboxylic acid] | – | 0.016 (≈ 0.0408 µM) | 2 (≈ 5.1 µM) | 0.03 (≈ 0.0764 µM) | 21 |
| C[C@@H](O)[C@H]1C(=O)N2C(C(=O)O)=C(SCCC#N)[C@H](CCN3CCN(C)CC3)[C@H]12 [Example 126, (4R,5S,6S)-3-[(2-Cyanoethyl)thio]-6-[(1'R)-1'-hydroxyethyl]-4-[2"(4-methylpiperazine-1-yl)ethyl]-7-oxo-1-azabicyclo[3.2.0]hept-2-ene-2-carboxylic acid] | – | 0.016 (≈ 0.0392 µM) | 2 (≈ 4.9 µM) | 0.008 (≈ 0.0196 µM) | 47 |
| C[C@@H](O)[C@H]1C(=O)N2C(C(=O)O)=C(SCCN3CCCC3)[C@H](CCCNC(=N)N)[C@H]12 [Example 127, (4R,5S,6S)-4-(3"-Guanidinopropyl)-6-[(1'R)-1'-hydroxyethyl]3-([2-(1-pyrrolidinyl)ethyllthio)-7-oxo-1-azabicyclo[3.2.0]-hept-2-ene-2-carboxylic acid, acetic acid salt] | – | 0.06 | 1 | 0.13 | 31 |
| C[C@@H](O)[C@H]1C(=O)N2C(C(=O)O)=C(SCC(=N)N(C)C)[C@H](CCCN)[C@H]12 [Example 130, (4R,5S,6S)-4-(3"-Aminopropyl)-3-[(N,N-dimethylamidinomethyl]thio]-6-[(1'R)-1'-hyroxyethyl]-7-oxo-1-azabicyclo[3.2.0]hept-2-ene-2-carboxylic acid, acetic acid salt] | – | 0.13 | 0.06 | 0.13 | 16 |
| C[C@@H](O)[C@H]1C(=O)N2C(C(=O)O)=C(SCCC#N)[C@H](CCSCCN)[C@H]12 [Example 131, (4R,5S,6S)-4-(2"-(2-Aminoethylthio)ethyl]-3-[(2-cyanoethylthio]-6-[(1'R)-1'-hydroxyethy)]-7-oxo-1-azabicyclo-[3.2.0]-hept-2-ene-2-carboxylic acid] | – | 0.25 (≈ 0.648 µM) | 2 (≈ 5.19 µM) | 0.13 (≈ 0.337 µM) | 46 |
| C[C@@H](O)[C@H]1C(=O)N2C(C(=O)O)=C(SCCNC(=N)N)[C@H](CCNC(=N)N)[C@H]12 [Example 135, (4R,5S,6S)-4-(2"-Guanidinoethyl)-3-[(2-guanidinoethyl)-thio]-6-[(1'R)-1'-hydroxyethyl]-7-oxo-1-azabicyclo-[3.2.0]hept-2-ene-2-carboxylic acid, acetic acid salt] | – | 0.03 | 0.06 | 0.015 | 37 |
| C[C@@H](O)[C@H]1C(=O)N2C(C(=O)[O-])=C(SCCC#N)[C@H](CC[n+]3ccccc3)[C@H]12 [Example 136, (4R,5S,6S)-3-[(2-Cyanoethyl)thio]-6-[(1'R)-1'-hydroxyethyl]-4-[2"-(1-pyridinium)ethyl]7-oxo-1-azabicyclo-[3.2.0]hept-2-ene-2-carboxylate] | – | 0.015 (≈ 0.0387 µM) | 4 (≈ 10.3 µM) | 0.007 (≈ 0.0181 µM) | 17 |
| CNCCC[C@H]1C(SCCC#N)=C(C(=O)O)N2C(=O)[C@H]([C@@H](C)O)[C@@H]12 [Example 154, (4R,5S,6S)-3-[(2-Cyanoethyl]thio]-6-[(1'R]-1'-hydroxyethyl]-4-(3"-N-methylaminopropyl)-7-oxo-1-azabicyclo[3.2.0]hept-2-ene-2-carboxylic acid] | – | 0.5 (≈ 1.41 µM) | 1 (≈ 2.83 µM) | 0.25 (≈ 0.707 µM) | 79 |
